The results in this text go back to patent publication US20070161107A1, “Differentiation of human embryonic stem cells to cardiomyocytes” (priority 2003, published 2007).

Assay [1] deals with hES derived cardiomyocytes. Nature of the assay: Chronotropic response (beating rate) of dissociated hES-derived cardiomyocytes. Format: cell-based, human. The note with it: cultured dissociated hES cardiomyocytes. The text has this:
(§1) FIG. 4. Action potentials and chronotropic responses. […] C.
Co-cultures were initiated as for END-2 cells.
(§2) Ventricular-like action potentials predominated (28 out of 33; table 2) but atrial-like (n=2), pacemaker-like (n=1) and vascular smooth muscle like-cells (n=2) were also found. In areas in which the cells were not beating but had adopted morphologies indistinguishable from beating areas (FIG. 1F), current injection was sufficient to induce repeated action potentials and sustained synchronous rhythmic contractions. Transcripts for MLC-2v were also detected by RTPCR in non-beating, myocyte-like areas (not shown); scoring beating muscle may thus underestimate the number of cardiomyocytes present in culture. […] The effects of phenylephrine, isoprenaline and carbachol on cultured dissociated hES cardiomyocytes were tested and compared to cultured human fetal ventricular cells (FIG. 4B). […] Similar effects were reported in mES derived cardiomyocytes 21 and mouse fetal cells (22).

Assay [2] has as its system human fetal ventricular cells. As to the kind of experiment: Chronotropic response (beating rate) of cultured human fetal ventricular cells. The class given is cell-based.
Description: as §1, §2

Take `CC(C)NCC(O)c1ccc(O)c(O)c1` (stereo not drawn) [isoprenaline]: the “effect on beating rate” value in assay [1] and in assay [2] was “increase” throughout.
Turning to `CNC[C@H](O)c1cccc(O)c1` [phenylephrine], the “effect on beating rate” value in assay [1] and in assay [2] was “increase” each time.
For `C[N+](C)(C)CCOC(N)=O` [Carbachol], the “effect on beating rate” value in assay [1] and in assay [2] was “decreased the beating rate” in each case.
